Data taken from patent US5693805A, “Process to derivatives of piperizinylcamphorsulfonyl oxytocin antagonists” (Merck & Co., Inc., priority 1995, dated 1997).

Molecular target: T1, uterine OT receptors (Rattus norvegicus, UniProt P70536)
T1 construct: from tissue; host or cells: uterus of DES-treated rats, crude membrane preparation
T1 sequence (P70536 1-388): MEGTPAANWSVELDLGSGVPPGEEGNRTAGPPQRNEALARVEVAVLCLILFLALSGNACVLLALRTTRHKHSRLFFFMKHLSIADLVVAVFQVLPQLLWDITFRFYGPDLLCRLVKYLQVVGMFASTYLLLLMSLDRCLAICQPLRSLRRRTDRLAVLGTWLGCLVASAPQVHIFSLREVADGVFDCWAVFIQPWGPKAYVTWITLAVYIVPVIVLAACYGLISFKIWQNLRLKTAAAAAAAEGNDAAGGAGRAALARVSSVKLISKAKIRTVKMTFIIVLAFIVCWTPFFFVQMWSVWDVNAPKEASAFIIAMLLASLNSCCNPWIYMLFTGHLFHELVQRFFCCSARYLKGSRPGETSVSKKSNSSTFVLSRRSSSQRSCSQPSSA
Experiment: [3H]Oxytocin radioligand binding assay to uterine OT receptors (crude membrane preparation of uteri from DES-treated rats)
Details: competition at equilibrium, 60 min, 22° C., 1 nM [3H]OT, pH 7.4; Ki = IC50/1+c/Kd, Kd [3H]OT (uterus) 0.7 nM; three to six separate determinations
Procedure: The high affinity binding of [^3 H] […] Competition studies were conducted at equilibrium (60 minutes; 22° C.) using 1 nM[^3 H]OT in the following assay buffer: 50 mM Tris-HCl, 5 mM MgCl2, and 0.1% BSA, pH 7.4.

SMILES: Cc1ccccc1N1CCN(S(=O)(=O)C[C@]23CC[C@H](C[C@@H]2NC(=O)[C@@H](N)CCS(C)(=O)=O)C3(C)C)CC1 [Compound I]
- Ki: 7.7 nM
